The source of these data is patent US12667546B2, “Methods for manipulating cell state transitions in cancer” (AGENCY FOR SCIENCE, TECHNOLOGY AND RESEARCH, priority 2018, dated 2026).

For one experiment, the system named is MCF7-Ras. The experiment can be described thus: Tumor growth of ex vivo pre-treated MCF7-Ras injected subcutaneously. The class given is in vivo, NSG mice. The conditions noted are these: ex vivo treatment before injection. As for the experimental part: (§1) All animal experiments were approved by the Agency for Science Technology and Research Singapore-Biological Resource Centre IACUC (Protocol number 140940). For pre-treated SUM159 and MCF7-Ras cells, 1×10^6 cells were suspended in 100 μl media containing 50% matrigel and injected subcutaneously into both flanks of female NSG mice. The NSG mice were checked for tumor by palpation once a week and tumors were harvested when they reached ˜15 mm in diameter. For treatment in NSG mice, 1×10^5 NAMEC8-Ras cells were suspended in 100 μl media containing 50% matrigel and injected subcutaneously into both flanks of NSG mice. The NSG mice were checked for tumor formation by palpation and when tumors were about 3 mm, mice were randomized into two groups: vehicle (5% DMSO in corn oil) and treatment (Bexarotene, 100 mg/kg/day oral dosing). Tumor size was measured every week using Vernier calipers and mice were sacrificed when tumors reached ˜15 mm or after ˜4 weeks of treatment. For patient-derived cells, 2×10^6 cells were injected subcutaneously per site in NSG mice.

Another experiment deals with NAMEC8, SUM159 and BC2.2. The experiment can be described thus: Oxygen consumption rate with palmitate (Seahorse). The conditions noted are these: supplemented with palmitate. Type of experiment: cell-based, human.
Experiment [1] has as its system SUM159. The experiment can be described thus: Expression of EMT and lineage markers in SUM159. Type of experiment: cell-based, human. As for the experimental part: (§2) Cells were rinsed twice in ice-cold PBS. Total RNA was extracted using Trizol (Invitrogen) and column-purified with RNeasy kits (Qiagen). cDNA synthesis was performed with 500 ng of total RNA at 37° C. for 2 h using the SuperScript III First-Strand Synthesis System (Thermo Fisher Scientific), and subsequently diluted 5-fold. mRNA levels were measured with gene-specific primers listed below using the ABI Prism 7900HT Sequence Detection System 2.2 (Applied Biosystems). Results were normalized to GAPDH and analyzed using SDS 2.2 software.
Cells were harvested and scraped from culture dishes in ice-cold PBS. They were then centrifuged at 12000 rpm for 5 min at 4° C. The pellets were then snap frozen in liquid nitrogen or lysed in ice-cold RIPA lysis buffer (Thermo Scientific) and left on ice for 30 min. Subsequently, the lysates were centrifuged at 12000 rpm for 10 min at 4° C. The supernatants were then aspirated and placed in fresh tubes. Protein concentrations were determined using Coomaisse Blue. 50-80 μg total protein was mixed with NuPAGE™ LDS sample buffer and heated at 70° C. for 10 min. Samples were loaded into NuPAGE™ 4-12% Bis-Tris gels (precast polyacrylamide gel; Invitrogen™). Gel electrophoresis was done at 200V for 1.5 h and then blotted onto nitrocellulose membranes (Trans-Blot Turbo™ transfer pack; Bio-Rad). […]

Experiment [2] relates to NAMEC8. Description: Cell morphology of treated NAMEC8. The class given is cell-based, human. The conditions noted are these: bexarotene, TTNPB, SGC-CBP30, UNC0642, A-485 1 μM, LLY-283, GSK591 20 nM, C-IN-1 500 nM. The method in brief: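 HMLE cells immortalized with hTERT and SV-40 Large T, differentially trypsinized (0.05% trypsin, 1 min) at 50% confluency and replated at ~200 cells/well; wells screened for stably propagating mesenchymal-morphology populations. NAMEC8 is non-clonal, from at least 200 mesenchymal cells; maintained in MEGM.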

The test system of the next experiment is NAMEC8 and BC2.2. Description: Gene expression of ER target genes. Type of experiment: cell-based, human. As for the experimental part: as §2
For experiment [3], the system named is NAMEC8. Description: Mammosphere assay, NAMEC8. The conditions noted are these: NAMEC8. Type of experiment: cell-based, human. As for the experimental part: For mammosphere culture, cells were seeded onto 96-well ultralow-adherence plates at 700 cells/well in Mammocult medium (Stem Cell Technologies) supplemented with 4 μg/ml heparin, 0.5 μg/ml hydrocortisone and 1% methylcellulose. Spheres (>100 μm) were counted at 7-10 days later.

The subject of experiment [4] is NAMEC8-SERPINE1prom-Luc cells. The experiment can be described thus: Renilla-luciferase (constitutive CMV promoter) readout for cell numbers. The conditions noted are these: Homo sapiens, 72 h, primary screen; Renilla as readout for cell numbers; relative to DMSO; read-out: % Avr Renilla from DMSO. Type of experiment: cell-based, human.
The test system of experiment [5] is SUM159. Description: Cell morphology of treated SUM159. The conditions noted are these: bexarotene, TTNPB 1 μM. Type of experiment: cell-based, human. Here is the method:
HMLE-Twist-ER cells were generated as described. For EMT-induction, 100 nM of 4-hydroxytamoxifen in ethanol was added to the culture medium every 48 h to induce Twist expression. Control cells were treated with ethanol. MCF7-Slug+Sox9 cells were generated as previously described. HMLE-Zeb1 cells were generated by infection with FUW-Zeb1 and rTTA. Doxycycline was added to the culture medium every 48 h to induce Zeb1 expression. To generate tumorigenic cells from NAMEC8, cells were infected with pWZL-Blast-Ras. MCF7, MCF7-Ras, SUM159 were maintained as previously described. All cell cultures were maintained at 37° C. with 5% CO2.

Experiment [6] deals with SUM159. The experiment can be described thus: Tumor growth of ex vivo pre-treated SUM159 injected subcutaneously. Type of experiment: in vivo, NSG mice. The conditions noted are these: short-term (14 days) ex vivo treatment before transplantation. As for the experimental part: as §1
The test system of experiment [7] is BC2.2, BC22.1, BC29.1, MetBR 007-DR. Description: EMT and lineage markers in patient-derived triple-negative breast cancer cell lines. The class given is cell-based, human. The conditions noted are these: patient-derived TNBC cell lines. As for the experimental part:
Breast tissue biopsies from cancer patients were obtained from National Cancer Centre Singapore (NCCS) with patients' consent and under an IRB approved protocol (2015/2976). Tissue was digested with 1 mg/ml collagenase IV (Gibco) and 1 mg/ml dispase II (Thermo Fisher Scientific) in F12 media for 2 h while shaking in a 37° C. incubator. Cell suspension was then put through a cell strainer and centrifuged for 10 min at 1500 rpm. Cells were then washed twice and resuspended in media before seeding on irradiated 3T3 feeders as previously described. When confluent, sub-culturing was carried out by first lifting the feeders using 0.15% trypsin for 2 min. […]
as §2
Cells were harvested and scraped from culture dishes in ice-cold PBS. […] Protein concentrations were determined using Coomaisse Blue. […]

Procedure for NAMEC8, SUM159 and BC2.2: FAO rate was measured using the mitochondrial stress test on the XF96 analyzer (Seahorse Bioscience) according to manufacturer's instructions. Cells were seeded in 96well XF96 cell culture plates at a density of 9000 cells/well in complete media. Cells were then incubated with XF modified DMEM assay medium (Seahorse Bioscience) supplemented with 1 mM glutamine, 0.5 mM glucose, 1% FBS and 0.5 mM carnitine the next day for 18 h. On the day of the assay, cells were incubated with FAO assay medium (KHB: 111 mM NaCl, 4.7 mM KCl, 1.25 mM CaCl2), 2 mM MgSO4, 1.2 mM NaH2 PO4 supplemented with 2.5 mM glucose, 0.5 mM carnitine, 5 mM HEPES, adjusted to pH7.4) 45 min prior to the assay in a non-CO2 incubator. Seahorse XF Cell Mito Stress Test compounds (2 μM oligomycin, 2 μM FCCP, 2 μM rotenone). […] Just prior to starting the assay, XF Palmitate-BSA FAO substrate or BSA was added to the cells. Plate was then put into the XF96 analyzer and the XF Cell Mito Stress Test was run using the recommended protocol. Rate of FAO was calculated by the difference in maximal respiration when Palmitate-BSA FAO substrate was supplemented relative to BSA control.

For the molecule `C=C(c1ccc(C(=O)O)cc1)c1cc2c(cc1C)C(C)(C)CCC2(C)C` [Bexarotene], the tumor cell growth entry in the experiment with MCF7-Ras is given as “no impact on the tumor cell growth was observed”. For the same molecule, the “oxygen consumption rate (OCR)” value in the experiment on NAMEC8, SUM159 and BC2.2 is “lower OCR when supplemented with palmitate”. The “expression of EMT and lineage markers / epithelial features” value in the experiment with SUM159 [1] was “downregulation of mesenchymal signature markers (ZEB1, SERPINE1, FN1, SLUG) and the concomitant gain of epithelial marker CDH1”. Besides, the cell morphology result in the experiment with NAMEC8 [2] was “dramatic change in morphology from scattered, spindle and fibroblastic-like cells to an epithelial-like morphology”; with SUM159 [5] it was “dramatic change in morphology from scattered, spindle and fibroblastic-like cells to an epithelial-like morphology”. In addition, the “expression of ER target genes (ABCA3, NRIP1, TFF1, CREB1)” value in the experiment with NAMEC8 and BC2.2 is “strongly elevated”. In addition, the “mammosphere formation after drug withdrawal” value with NAMEC8 [3] is “partial reestablishment of mammosphere-forming ability”. In addition, in experiment [4], the viability at 10 µM amounted to 87.5%. The tumorigenic potential entry in the experiment with SUM159 [6] was “severely crippled their tumorigenic potential for up till seven weeks post-transplantation”. The “expression of EMT and lineage markers” value in experiment [7] is recorded as “increased the expression of E-cadherin, while reducing SLUG expression, to varying extents”.
